Like-named read-outs stand apart in the source and are kept apart here. Where a SMILES comes first, the peptide text is derived from it. [ ]: non-standard residue; d: D form. Aib = CC(C)(N)C(=O)O
Columns and labels:
[1] = test system: Mouse monocyte/macrophage cell line, RAW 264.7; assay: Cholesterol efflux assay (3H-cholesterol, macrophage cell line); assay type: cell-based; conditions: RAW 264.7, 4 hrs incubation, 0.1% human serum albumin, ABCA1-mediated efflux
human GLP-1 receptor = human GLP-1 receptor (Homo sapiens, UniProt P43220); assay: Functional GLP-1 receptor assay, in vitro potency (CRE luciferase; whole cells); assay type: cell-based; conditions: BHK cells expressing human GLP-1 receptor
Chain of human GLP-1 receptor (P43220 24-463): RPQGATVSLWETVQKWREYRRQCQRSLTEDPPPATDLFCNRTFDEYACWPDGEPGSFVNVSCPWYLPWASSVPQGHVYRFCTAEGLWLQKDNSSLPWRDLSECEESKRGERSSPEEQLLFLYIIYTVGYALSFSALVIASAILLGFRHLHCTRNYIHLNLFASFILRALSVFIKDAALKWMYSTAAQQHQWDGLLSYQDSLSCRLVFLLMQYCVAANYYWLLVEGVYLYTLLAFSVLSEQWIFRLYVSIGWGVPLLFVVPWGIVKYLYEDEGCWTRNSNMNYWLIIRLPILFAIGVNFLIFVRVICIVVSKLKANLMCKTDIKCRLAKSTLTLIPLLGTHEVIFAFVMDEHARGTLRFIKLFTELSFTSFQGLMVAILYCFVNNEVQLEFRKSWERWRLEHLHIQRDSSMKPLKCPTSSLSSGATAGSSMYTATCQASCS

[2] = GLP1R CRE luc 1% HSA EC50 Mean Value, 1% HSA
[3] = 0% HSA, read-out: GLP1R CRE luc 0% HSA EC50 Mean Value

In the case of `CC[C@H](C)[C@H](NC(=O)[C@H](Cc1ccccc1)NC(=O)[C@H](CCC(=O)O)NC(=O)[C@H](CCC(N)=O)NC(=O)[C@@H](NC(=O)[C@H](C)NC(=O)[C@H](CCC(=O)O)NC(=O)CNC(=O)[C@H](CCC(=O)O)NC(=O)[C@H](CC(C)C)NC(=O)[C@H](Cc1ccc(O)cc1)NC(=O)[C@H](CO)NC(=O)[C@H](CO)NC(=O)[C@@H](NC(=O)[C@H](CC(=O)O)NC(=O)[C@H](CO)NC(=O)[C@@H](NC(=O)[C@H](Cc1ccccc1)NC(=O)[C@@H](NC(=O)CNC(=O)[C@H](CCC(=O)O)NC(=O)C(C)(C)NC(=O)[C@@H](N)Cc1c[nH]cn1)[C@@H](C)O)[C@@H](C)O)C(C)C)C(C)C)C(=O)N[C@@H](C)C(=O)N[C@@H](Cc1c[nH]c2ccccc12)C(=O)N[C@@H](CC(C)C)C(=O)N[C@H](C(=O)N[C@@H](CCC(=O)O)C(=O)N[C@@H](C)C(=O)N[C@H](C(=O)N[C@@H](C)C(=O)N[C@@H](CCC(=O)O)C(=O)N[C@@H](Cc1ccccc1)C(=O)N[C@@H](CC(C)C)C(N)=O)C(C)C)C(C)C` [Compound 94] (H-H[Aib]EGTFTSDVSSYLEGEAVQEFIAWLVEAVAEFL-NH2), the “4 h Cholesterol Efflux Emax” value [1] is reported as 74% and the EC50 (human GLP-1 receptor; [2]) is reported as 0.273 nM.
For `CC[C@H](C)[C@H](NC(=O)[C@H](Cc1ccccc1)NC(=O)[C@H](CCC(=O)O)NC(=O)[C@H](CCC(N)=O)NC(=O)[C@@H](NC(=O)[C@H](C)NC(=O)[C@H](CCC(=O)O)NC(=O)CNC(=O)[C@H](CCC(=O)O)NC(=O)[C@H](CC(C)C)NC(=O)[C@H](Cc1ccc(O)cc1)NC(=O)[C@H](CO)NC(=O)[C@H](CO)NC(=O)[C@@H](NC(=O)[C@H](CC(=O)O)NC(=O)[C@H](CO)NC(=O)[C@@H](NC(=O)[C@H](Cc1ccccc1)NC(=O)[C@@H](NC(=O)CNC(=O)[C@H](CCC(=O)O)NC(=O)C(C)(C)NC(=O)[C@@H](N)Cc1c[nH]cn1)[C@@H](C)O)[C@@H](C)O)C(C)C)C(C)C)C(=O)N[C@@H](C)C(=O)N[C@@H](Cc1c[nH]c2ccccc12)C(=O)N[C@@H](CC(C)C)C(=O)N[C@H](C(=O)N[C@@H](CCC(=O)O)C(=O)N[C@@H](CCC(N)=O)C(=O)NC(C)(C)C(=O)N[C@@H](CCC(N)=O)C(=O)N[C@@H](CCC(=O)O)C(=O)N[C@@H](Cc1ccccc1)C(=O)N[C@@H](CC(C)C)C(N)=O)C(C)C` [Compound 95] (H-H[Aib]EGTFTSDVSSYLEGEAVQEFIAWLVEQ[Aib]QEFL-NH2), the “4 h Cholesterol Efflux Emax” value [1] was 59% and the EC50 (human GLP-1 receptor; [2]) was 0.04 nM.
For `CC[C@H](C)[C@H](NC(=O)[C@H](Cc1ccccc1)NC(=O)[C@H](CCC(=O)O)NC(=O)[C@H](CCCCN)NC(=O)[C@@H](NC(=O)[C@H](C)NC(=O)[C@H](CCC(=O)O)NC(=O)CNC(=O)[C@H](CCC(=O)O)NC(=O)[C@H](CC(C)C)NC(=O)[C@H](Cc1ccc(O)cc1)NC(=O)[C@H](CO)NC(=O)[C@H](CO)NC(=O)[C@@H](NC(=O)[C@H](CC(=O)O)NC(=O)[C@H](CO)NC(=O)[C@@H](NC(=O)[C@H](Cc1ccccc1)NC(=O)[C@@H](NC(=O)CNC(=O)[C@H](CCC(=O)O)NC(=O)C(C)(C)NC(=O)[C@@H](N)Cc1c[nH]cn1)[C@@H](C)O)[C@@H](C)O)C(C)C)C(C)C)C(=O)N[C@@H](C)C(=O)N[C@@H](Cc1c[nH]c2ccccc12)C(=O)N[C@@H](CC(C)C)C(=O)N[C@H](C(=O)N[C@@H](CCC(=O)O)C(=O)N[C@@H](CCCCN)C(=O)N[C@H](C(=O)N[C@@H](CCCCN)C(=O)N[C@@H](CCC(=O)O)C(=O)N[C@@H](CCCCN)C(N)=O)C(C)C)C(C)C` [Compound 110, [Aib8,Glu23,Val25,Glu34,Lys35,Val36,Lys37]-GLP-1-(7-37)-peptidyl-Glu-Lvs amide] (H-H[Aib]EGTFTSDVSSYLEGEAVKEFIAWLVEKVKEK-NH2), the “4 h Cholesterol Efflux Emax” value [1] was 106%, the EC50 (human GLP-1 receptor; [3]) was 0.043 nM and the EC50 (human GLP-1 receptor; [2]) was 0.014 nM.
`CC[C@H](C)[C@H](NC(=O)[C@H](Cc1ccccc1)NC(=O)[C@H](CCC(=O)O)NC(=O)[C@H](CCCCN)NC(=O)[C@@H](NC(=O)[C@H](C)NC(=O)[C@H](CCC(=O)O)NC(=O)CNC(=O)[C@H](CCC(=O)O)NC(=O)[C@H](CC(C)C)NC(=O)[C@H](Cc1ccc(O)cc1)NC(=O)[C@H](CO)NC(=O)[C@H](CO)NC(=O)[C@@H](NC(=O)[C@H](CC(=O)O)NC(=O)[C@H](CO)NC(=O)[C@@H](NC(=O)[C@H](Cc1ccccc1)NC(=O)[C@@H](NC(=O)CNC(=O)[C@H](CCC(=O)O)NC(=O)C(C)(C)NC(=O)[C@@H](N)Cc1c[nH]cn1)[C@@H](C)O)[C@@H](C)O)C(C)C)C(C)C)C(=O)N[C@@H](CCC(=O)O)C(=O)N[C@@H](Cc1c[nH]c2ccccc12)C(=O)N[C@@H](CC(C)C)C(=O)N[C@H](C(=O)N[C@@H](CCC(=O)O)C(=O)N[C@@H](CCCCN)C(=O)N[C@H](C(=O)N[C@@H](CCCCN)C(=O)N[C@@H](CCC(=O)O)C(=O)N[C@@H](CCCCN)C(=O)N[C@@H](CC(C)C)C(N)=O)C(C)C)C(C)C` [Compound 112] (H-H[Aib]EGTFTSDVSSYLEGEAVKEFIEWLVEKVKEKL-NH2) was tested, and the “4 h Cholesterol Efflux Emax” value [1] was 119%, the EC50 (human GLP-1 receptor; [3]) was 0.163 nM and the EC50 (human GLP-1 receptor; [2]) was 0.039 nM.
`CC[C@H](C)[C@H](NC(=O)[C@H](Cc1ccccc1)NC(=O)[C@H](CCC(=O)O)NC(=O)[C@H](CCCCN)NC(=O)[C@@H](NC(=O)[C@H](C)NC(=O)[C@H](CCC(=O)O)NC(=O)CNC(=O)[C@H](CCC(=O)O)NC(=O)[C@H](CC(C)C)NC(=O)[C@H](Cc1ccc(O)cc1)NC(=O)[C@H](CO)NC(=O)[C@H](CO)NC(=O)[C@@H](NC(=O)[C@H](CC(=O)O)NC(=O)[C@H](CO)NC(=O)[C@@H](NC(=O)[C@H](Cc1ccccc1)NC(=O)[C@@H](NC(=O)CNC(=O)[C@H](CCC(=O)O)NC(=O)C(C)(C)NC(=O)[C@@H](N)Cc1c[nH]cn1)[C@@H](C)O)[C@@H](C)O)C(C)C)C(C)C)C(=O)N[C@@H](C)C(=O)N[C@@H](Cc1c[nH]c2ccccc12)C(=O)N[C@@H](CC(C)C)C(=O)N[C@H](C(=O)N[C@@H](CCC(=O)O)C(=O)N[C@@H](CCCCN)C(=O)NCC(=O)N[C@@H](CCCCN)C(=O)N[C@@H](CCC(=O)O)C(=O)N[C@@H](Cc1ccccc1)C(=O)N[C@@H](CC(C)C)C(N)=O)C(C)C` [Compound 113, [Aib8,Glu23,Val25,Glu34,Lys35,Gly36,Lys37]-GLP-1-(7-37)-peptidyl-Glu-Phe-Leu amide] (H-H[Aib]EGTFTSDVSSYLEGEAVKEFIAWLVEKGKEFL-NH2) was tested, and the “4 h Cholesterol Efflux Emax” value [1] was 143% and the EC50 (human GLP-1 receptor; [3]) was 0.034 nM.
With `CC[C@H](C)[C@H](NC(=O)[C@H](Cc1ccccc1)NC(=O)[C@H](CCC(=O)O)NC(=O)[C@H](CCCCN)NC(=O)[C@@H](NC(=O)[C@H](C)NC(=O)[C@H](CCC(=O)O)NC(=O)CNC(=O)[C@H](CCC(=O)O)NC(=O)[C@H](CC(C)C)NC(=O)[C@H](Cc1ccc(O)cc1)NC(=O)[C@H](CO)NC(=O)[C@H](CO)NC(=O)[C@@H](NC(=O)[C@H](CC(=O)O)NC(=O)[C@H](CO)NC(=O)[C@@H](NC(=O)[C@H](Cc1ccccc1)NC(=O)[C@@H](NC(=O)CNC(=O)[C@H](CCC(=O)O)NC(=O)C(C)(C)NC(=O)[C@@H](N)Cc1c[nH]cn1)[C@@H](C)O)[C@@H](C)O)C(C)C)C(C)C)C(=O)N[C@@H](C)C(=O)N[C@@H](Cc1c[nH]c2ccccc12)C(=O)N[C@@H](CC(C)C)C(=O)N[C@H](C(=O)N[C@@H](CCC(=O)O)C(=O)N[C@@H](CCCCN)C(=O)N[C@H](C(=O)N[C@@H](CCCCN)C(=O)NCC(=O)N[C@@H](Cc1ccccc1)C(=O)N[C@@H](CC(C)C)C(N)=O)C(C)C)C(C)C` [Compound 115, [Aib8,Glu23,Val25,Glu34,Lys35,Val36,Lys37]-GLP-1-(7-37)-peptidyl-Glv-Phe-Leu amide] (H-H[Aib]EGTFTSDVSSYLEGEAVKEFIAWLVEKVKGFL-NH2) the “4 h Cholesterol Efflux Emax” value [1] was 94% and the EC50 (human GLP-1 receptor; [2]) was 0.032 nM.
In the case of `CC[C@H](C)[C@H](NC(=O)[C@H](Cc1ccccc1)NC(=O)[C@H](CCC(=O)O)NC(=O)[C@H](CCCCN)NC(=O)[C@@H](NC(=O)[C@H](C)NC(=O)[C@H](CCC(=O)O)NC(=O)CNC(=O)[C@H](CCC(=O)O)NC(=O)[C@H](CC(C)C)NC(=O)[C@H](Cc1ccc(O)cc1)NC(=O)[C@H](CO)NC(=O)[C@H](CO)NC(=O)[C@@H](NC(=O)[C@H](CC(=O)O)NC(=O)[C@H](CO)NC(=O)[C@@H](NC(=O)[C@H](Cc1ccccc1)NC(=O)[C@@H](NC(=O)CNC(=O)[C@H](CCC(=O)O)NC(=O)C(C)(C)NC(=O)[C@@H](N)Cc1c[nH]cn1)[C@@H](C)O)[C@@H](C)O)C(C)C)C(C)C)C(=O)N[C@@H](C)C(=O)N[C@@H](Cc1c[nH]c2ccccc12)C(=O)N[C@@H](CC(C)C)C(=O)N[C@H](C(=O)N[C@@H](CCC(=O)O)C(=O)N[C@@H](CCCCN)C(=O)N[C@H](C(=O)N[C@@H](CCCCN)C(=O)N[C@@H](CCC(=O)O)C(=O)N[C@@H](CCC(=O)O)C(=O)N[C@@H](CC(C)C)C(N)=O)C(C)C)C(C)C` [Compound 116, [Aib8,Glu23,Val25,Glu34,Lys35,Val36,Lys37]-GLP-1-(7-37)-peptidyl-Glu-Glu-Leu amide] (H-H[Aib]EGTFTSDVSSYLEGEAVKEFIAWLVEKVKEEL-NH2), the “4 h Cholesterol Efflux Emax” value [1] is reported as 131%, the EC50 (human GLP-1 receptor; [3]) is reported as 0.025 nM and the EC50 (human GLP-1 receptor; [2]) is reported as 0.016 nM.
`CC[C@H](C)[C@H](NC(=O)[C@H](Cc1ccccc1)NC(=O)[C@H](CCC(=O)O)NC(=O)[C@H](CCCCN)NC(=O)[C@@H](NC(=O)[C@H](C)NC(=O)[C@H](CCC(=O)O)NC(=O)CNC(=O)[C@H](CCC(=O)O)NC(=O)[C@H](CC(C)C)NC(=O)[C@H](Cc1ccc(O)cc1)NC(=O)[C@H](CO)NC(=O)[C@H](CO)NC(=O)[C@@H](NC(=O)[C@H](CC(=O)O)NC(=O)[C@H](CO)NC(=O)[C@@H](NC(=O)[C@H](Cc1ccccc1)NC(=O)[C@@H](NC(=O)CNC(=O)[C@H](CCC(=O)O)NC(=O)C(C)(C)NC(=O)[C@@H](N)Cc1c[nH]cn1)[C@@H](C)O)[C@@H](C)O)C(C)C)C(C)C)C(=O)N[C@@H](C)C(=O)N[C@@H](Cc1c[nH]c2ccccc12)C(=O)N[C@@H](CC(C)C)C(=O)N[C@H](C(=O)N[C@@H](CCC(=O)O)C(=O)N[C@@H](CCCCN)C(=O)N[C@H](C(=O)N[C@@H](CCCCN)C(=O)N[C@@H](CCC(=O)O)C(=O)NCC(=O)N[C@@H](CC(C)C)C(N)=O)C(C)C)C(C)C` [Compound 117, [Aib8,Glu23,Val25,Glu34,Lys35,Val36,Lys37]-GLP-1-(7-37)-peptidyl-Glu-Gly-Leu amide] (H-H[Aib]EGTFTSDVSSYLEGEAVKEFIAWLVEKVKEGL-NH2) was tested, and the “4 h Cholesterol Efflux Emax” value [1] was 114% and the EC50 (human GLP-1 receptor; [3]) was 0.011 nM.
